Experiment [1] concerns SETFA (Setaria faberi, giant foxtail). Description: Pre-emergence soil-applied weed control, greenhouse (Example V). In kind it is in vivo, Setaria faberi Herrm. As to conditions: Table 59 (pre-emergence). The source says: Seeds or nutlets of the desired test plant species were planted in a soil matrix prepared by mixing a loam soil (32 percent silt, 23 percent clay, and 45 percent sand, with a pH of about 6.5 and an organic matter content of about 1.9 percent) and calcareous grit in an 80 to 20 ratio. The soil matrix was contained in plastic pots with a volume of 1 quart and a surface area of 83.6 square centimeters (cm^2).
Treatments consisted of the benzyl ester of 4-amino-3-chloro-5-fluoro-6-(4-chloro-2-fluoro-3-methoxy-phenyl)pyridine-2-carboxylic acid (compound A) formulated as an SC (suspension concentrate) and various herbicidal components alone and in combination. Forms of compound A were applied on an acid equivalent basis.
Other herbicidal components were applied on an acid equivalent or active ingredient basis and included the acetolactate synthase (ALS)-inhibiting herbicide, flazasulfuron, formulated as Katana®.
Treatment requirements were calculated based upon the rates being tested, the concentration of active ingredient or acid equivalent in the formulation, and a 12 mL application volume at a rate of 187 L/ha.
For treatments comprised of formulated compounds, measured amounts of compounds were placed individually in 25 mL glass vials and diluted in a volume of 1.25% (v/v) Agri-Dex® crop oil concentrate (COC) to obtain 12× stock solutions. […] Application solutions were prepared by adding an appropriate amount of each stock solution (e.g., 1 mL) and diluted to the appropriate final concentrations with the addition of 10 mL of an aqueous mixture of 1.25% (v/v) COC so that the final spray solutions contained 1.25% (v/v) COC. […]
The treated and control pots were placed in a greenhouse and top watered as needed. […] After approximately 4 weeks, the condition of the test plants as compared with that of the untreated plants was determined visually and scored on a scale of 0 to 100 percent where 0 corresponds to no injury or growth inhibition and 100 corresponds to complete kill. […]

Experiment [2] concerns SIDSP (Sida spinosa, prickly sida). Description: Post-emergence herbicidal activity of mixtures in forage crops, greenhouse (Example IV). As to conditions: Table 58 (forage), foliar-applied, after approximately 21 days. In kind it is in vivo, Sida spinosa L. On the procedure: Seeds or root cuttings of the desired test plant species were planted in Sun Gro MetroMix® 306 planting mixture, which typically has a pH of 6.0 to 6.8 and an organic matter content of about 30 percent, in plastic pots with a surface area of 126.6 square centimeters (cm^2). When required to ensure good germination and healthy plants, a fungicide treatment and/or other chemical or physical treatment was applied. The plants were grown for 14-60 days in a greenhouse with an approximate 14 hour photoperiod which was maintained at approximately 28° C. during the day and 24° C. during the night. Nutrients and water were added on a regular basis and supplemental lighting was provided with overhead metal halide 1000-Watt lamps as necessary. The plants were employed for testing when they reached the BBCH13 to BBCH23 leaf stage.
Treatments consisted of the benzyl ester of 4-amino-3-chloro-5-fluoro-6-(4-chloro-2-fluoro-3-methoxy-phenyl)pyridine-2-carboxylic acid (Compound A), formulated as a SC, and a second herbicide alone and in combination.
A measured aliquot of Compound A was placed in 25 milliliter (mL) glass vial and diluted in a volume of 1.25% (v/v) Agri-dex crop oil concentrated to obtain stock solutions. Compound requirements are based upon a 12 mL application volume at a rate of 187 liters per hectare (L/ha). Spray solutions of the second cereal herbicide and experimental compound mixtures were prepared by adding the stock solutions to the appropriate amount of dilution solution to form 12 mL spray solution with active ingredients in two- and three-way combinations. […]
The treated plants and control plants were placed in a greenhouse as described above and watered by sub-irrigation to prevent wash-off of the test compounds. After approximately 21 days, the condition of the test plants, as compared with that of the control plants, was determined visually and scored on a scale of 0 to 100 percent where 0 corresponds to no injury and 100 corresponds to complete kill. […]

As to `COc1c(Cl)ccc(-c2nc(C(=O)OCc3ccccc3)c(Cl)c(N)c2F)c1F` [Compound A Benzyl Ester], the “Visual Weed Control (%) - 27 DAA SETFA Obs” value in experiment [1] (16 gae/ha alone) was determined as 8%; in experiment [1] (32 gae/ha alone) it was 15%. The “Weed Control SIDSP Obs” value in experiment [2] (2.2 gai/ha alone) stood at 77%; in experiment [2] (4.4 gai/ha alone), 85%.

The values are drawn from patent publication US8871681B2, “Herbicidal compositions comprising 4-amino-3-chloro-5-fluoro-6-(4-chloro-2-fluoro-3-methoxyphenyl) pyridine-2-carboxylic acid or a derivative thereof and certain sulfonylureas” (Dow AgroSciences LLC, priority 2012, dated 2014).
